From US20200352889A1, “CYSTATHIONINE COMPOSITIONS AND METHODS OF TREATMENT FOR HEALTH CONDITIONS” (THE REGENTS OF THE UNIVERSITY OF COLORADO, A BODY CORPORATE, priority 2011, published 2020)

Experiments:
[1] = tested on: KDEL containing chaperones and GADD153; test: Immunohistochemical analysis of unfolded protein response in liver and kidney; type: in vivo, mouse
Description: While it is not necessary to understand the mechanism of action, it is believed cystathionine may protect against ER stress induced cell injury by increasing the induction of molecular chaperones like Grp78 or by inhibiting the induction of GADD153. In order to investigate the mechanism by which cystathionine is protecting against ER stress induced tissue injury, an immunohistochemical analysis of liver and kidney tissues samples from the experimental groups described above was performed. […] Strong induction of KDEL containing proteins and GADD153 by tunicamycin treatment in both liver and kidneys of the tunicamycin groups was observed (FIG. 8, Panel B).
Prolonged perturbation of the ER is a powerful inducer of the C/EBP family member GADD153 (also known as CHOP) that plays a key role in the induction of programmed cell death by ER stress (10). Previous work has shown that GRP78 over-expression in Chinese hamster ovary cells attenuates both the ER stress-signal and the cell death that is observed in response to calcium ionophores (22) and blocking the expression of GRP78 by means of antisense constructs increase the lethality of agents that promote ER stress (23). Within this context, it is conceivable that cystathionine could protect against ER stress induced cell injury by increasing the induction of molecular chaperones like Grp78 or by inhibiting the induction of GADD153. […]

[2] = biological target: T1, CGL (Mus musculus, UniProt Q8VCN5); test: Daily injection of PPG in WT mice, plasma cystathionine, Hcy, methionine and cysteine; type: in vivo
T1 construct: endogenous in cells; host or cells: C57BL/6J wild-type mice (whole animal, in vivo)
T1 sequence (Q8VCN5 whole entry): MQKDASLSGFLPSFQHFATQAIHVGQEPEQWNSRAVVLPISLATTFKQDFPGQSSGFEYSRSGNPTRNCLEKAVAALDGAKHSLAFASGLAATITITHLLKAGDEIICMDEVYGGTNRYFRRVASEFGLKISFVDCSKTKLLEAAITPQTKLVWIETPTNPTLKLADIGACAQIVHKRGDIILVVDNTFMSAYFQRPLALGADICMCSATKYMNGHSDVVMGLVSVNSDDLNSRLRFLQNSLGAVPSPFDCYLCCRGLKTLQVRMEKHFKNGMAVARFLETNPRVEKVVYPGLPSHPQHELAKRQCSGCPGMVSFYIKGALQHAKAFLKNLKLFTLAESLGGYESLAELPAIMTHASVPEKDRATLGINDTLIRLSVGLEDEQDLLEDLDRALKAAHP
Description: It is believed that the longevity of this cystathionine accumulation with repeated injections of PPG over time in mice has not been properly examined. Consequently, daily injections of PPG were given to WT mice (n=7) each morning over a period of 4 days. Plasma samples were taken from these mice in the evening of each day by non-lethal tail bleed and the levels of cystathionine, Hcy, methionine and cysteine were determined (FIG. 4). Inactivation of CGL was observed and was accompanied by a 56-fold increase in the plasma level of cystathionine on day 1. […] Cysteine levels subsequently returned to near normal levels as the effects of the PPG treatment diminished.
Propensity for hepatic steatosis was examined in HO and wild type control mice using a methionine-choline deficient amino acid defined and iron supplemented diet (#518810 Dyets Inc., Bethlehem, Pa.)) and an isocaloric amino acid defined Lombardi choline sufficient diet with methionine control diet (518754, Dyets Inc., Bethlehem, Pa.) for 19 days as described previously (7). Experimental hypercystathionemia was induced by IP injection of the CGL inactivator PPG (50 mg·day-1·kg-1) as described previously (8). ER stress was induced in mice by a single IP injection with tunicamycin at 0.5 mg/kg body weight (volume <=1.0 ml). Control mice were sham treated by injection with an equal volume of PBS (9,10).
Determination of plasma levels of methionine cycle metabolites was performed as described previously (11).
Previous work by Abeles and Walsh synthesized and tested a range of acetylenic substrates capable of irreversible inactivation of CGL. […] For our purposes this method has the additional benefit of allowing us to investigate the possible protective effects of elevated cystathionine in isolation from its role as a cysteine donor. To our knowledge, the longevity of this cystathionine accumulation with repeated injections of PPG over time in mice has not been examined. Daily injections of PPG to WT mice were given (n=7) each morning over a period of 4 days. Plasma samples were taken from these mice in the evening of each day by non-lethal tail bleed and the levels of cystathionine, Hcy, methionine and cysteine were determined (FIG. 4). It was observed that inactivation of CGL was accompanied by a 56-fold increase in the plasma level of cystathionine on day 1. […] Cysteine levels subsequently returned to near normal levels as the effects of the PPG treatment diminished. These experiments allowed us to define an optimal time frame for examining the possible protective effects of PPG mediated cystathionine accumulation in WT mice. The effect of PPG on liver health was assessed by determining ALT values before PPG treatment and at each subsequent time point studied.

[3] = tested on: HepG2 cells; test: Tunicamycin-induced cell death, LDH release, HepG2 cells; type: cell-based, human; conditions: data not shown
Description: Cells were seeded in triplicate at ˜75% confluence and pre-treated with either PPG) (5 mM), Cystathionine (1 mM) or with just complete media (DMEM, 10% FBS) as a control. After 24 hr pre-treatment, cells looked normal, with minimal floating cells. Fresh media with 1% FBS was then added to each well, the cells were further treated with Tm (either 5 or 10 ug)/ml. After 18 hr. treatment with Tunicamycin, cells were photographed under phase-contrast with a Zeiss Axiovert 25 microscope for evidence of dead floating cells. Cells from the group treated solely with tunicamycin became strikingly hyper-refringent, detached from the substratum and floated in the media. […] To further evaluate a role for cystathionine in resisting the induction of cell death by tunicamycin, cell lysis was quantified by assaying lactate dehydrogenase (LDH) release. The enzyme activity was determined spectrophotometrically and the amount of enzyme leak was expressed as a percentage of the LDH activity observed in untreated control cells. […]
Cells were seeded in triplicate at ˜75% confluence and pre-treated with either PPG) (5 mM), Cystathionine (1 mM) or with just complete media (DMEM, 10% FBS) as a control. […] To further evaluate a role for cystathionine in resisting the induction of cell death by tunicamycin, cell lysis was quantified by assaying lactate dehydrogenase (LDH) release. […]

[4] = daily PPG IP, declined back to normal as PPG efficacy diminished

C#CCC(N)C(=O)O (racemic) [PPG, D,L-2-amino-4-pentynoic acid]
expression of KDEL signature proteins ([1]; PPG treatment alone): did not induce expression | level of induction of KDEL containing chaperones and GADD153 by tunicamycin ([1]; tunicamycin + PPG, liver and kidney): did not appear to affect the level of induction | increase in the plasma level of cystathionine ([2]; daily PPG IP 50 mg/kg/day, day 1, vs untreated animals): 56 fold | increase in the plasma level of cystathionine ([2]; daily PPG IP, day 3): 30 fold | increase in the plasma level of cystathionine ([2]; daily PPG IP, day 4, vs untreated animals): 8 fold | plasma methionine [2, 4]: relatively mild elevation | plasma total Hcy (tHcy) [2, 4]: relatively mild elevation | plasma cysteine levels ([2]; daily PPG IP, first and second days): concomitant decrease | plasma cystathionine accumulation ([2]; daily PPG IP, second day): maximal accumulation persisted | protection against tunicamycin-induced cell death compared with 293AD cells [3]: Essentially identical results
